B1: G-CSF: granulocyte-colony stimulating factor; growth factor for stem cells and EPCs currently used in clinics (protein, UniProt P09919 31-207, looked up)
Granulocyte …: TPLGPASSLPQSFLLKCLEQVRKIQGDGAALQEKLVSECATYKLCHPEELVLLGHSLGIPWAPLSSCPSQALQLAGCLSQLHSGLFLYQGLLQALEGISPELGPTLDTLQLDVADFATTIWQQMEELGMAPALQPTQGAMPAFASAFQRRAGGVLVASHLQSFLEVSYRVLRHLAQP

Key:
[1] = system: hematopoietic stem cells CD34+ and EPCs CD133+; assay: Stem cell and endothelial progenitor cell mobilization into peripheral blood; type: in vivo, BALB/c mice; settings: for Fold increase at 1 mg/Kg, CD34+ / Fold increase at Maximum Tolerated Dose (MTD), CD34+: CD34+ cells in circulation; for Fold increase at 1 mg/Kg, CD34+ / Fold increase at Maximum Tolerated Dose (MTD), CD34+ / Fold increase at 1 mg/Kg, CD133+ / Fold increase at Maximum Tolerated Dose (MTD), CD133+: mice; for Fold increase at Maximum Tolerated Dose (MTD), CD34+ / Fold increase at Maximum Tolerated Dose (MTD), CD133+: MTD (125: 15 mg/kg, 136: 30 mg/Kg); for Fold increase at 1 mg/Kg, CD133+ / Fold increase at Maximum Tolerated Dose (MTD), CD133+: CD133+ cells in circulation; for Fold increase in circulation, CD34+ / Fold increase in circulation, CD133+: Table 2, 125 at 15 mg/Kg, G-CSF at 50 ug/kg/d × 4, alone or combined; for mobilization of hematopoietic stem cells CD34+ and EPCs CD133+ into peripheral blood: animal studies
Experimental: The in vivo efficacy of these two compounds in mobilizing stem cells was tested in male Special Pathogens Free (SPF) BALB/c mice. Different concentrations of a compound solution were prepared and administrated either intravenously of intramuscularly into mice. Mice receiving saline were used as a control. Whole blood was collected at 3 hours after i.v. injection or 6 hours after i.m. injection by cardiac puncture. Total leukocytes were resuspended in PBS and cell numbers were counted using trypan blue exclusion. Cells numbers were adjusted to 6×10^4 in 0.1 mL PBS for antibody staining. CXCR4^+ cells, CD34^+ cells, and CD133^+ cells were counted using surface staining and flow cytometry analysis. Data represents mean ±SEM of four independent experiments. Levels of cell number in different groups were compared using One-way ANOVA, differences were considered significant if P values were <0.05.

[2] = Maximum Tolerated Dose; settings: male, BALB/c, mouse, in vivo, intravenous; mice

| Molecule | Fold increase at 1 mg/Kg, CD34+ [1] [fold] | Fold increase at Maximum Tolerated Dose (MTD), CD34+ [1] [fold] | Fold increase at 1 mg/Kg, CD133+ [1] [fold] | Fold increase at Maximum Tolerated Dose (MTD), CD133+ [1] [fold] | Fold increase in circulation, CD34+ [1] [fold] | Fold increase in circulation, CD133+ [1] [fold] | mobilization of hematopoietic stem cells CD34+ and EPCs CD133+ into peripheral blood [1] | MTD [2] [mg/kg] |
| --- | --- | --- | --- | --- | --- | --- | --- | --- |
| c1ccc(CNCCN(CCNCc2ccccn2)Cc2ccc(CNCc3nc4ccccc4[nH]3)cc2)nc1 [Compound 125, N-(4-{[(1H-benzoimidazol-2-ylmethyl)-amino]-methyl}-benzyl)-N′-pyridin-2-ylmethyl-N-{2-[(pyridin-2-ylmethyl)-amino]-ethyl}-ethane-1,2-diamine] | 3.99 | 6.58 | 2.24 | 5.77 | 7.1 | 6.0 | rapidly mobilized | 15 |
| COc1ccc2[nH]c(CNCc3ccc(CN(CCNCc4ccccn4)CCNCc4ccccn4)cc3)nc2c1 [Compound 136, N1-(4-(((5-methoxy-1H-benzo[d]imidazol-2-yl)methylamino)methyl)benzyl)-N2-(pyridin-2-ylmethyl)-N1-(2-(pyridin-2-ylmethylamino)-ethyl)ethane-1,2-diamine] | 2.63 | 5.66 | 3.17 | 8.49 |  |  | rapidly mobilized | 30 |
| B1 |  |  |  |  | 8.4 | 26.2 |  |  |

— patent US7504422B2, “Polyamine compounds” (Taigen Biotechnology Co. Ltd., priority 2003, dated 2009)
